Series [1] concerns A2780 cell line. The series is described as follows: Proteomic study, protein expression after treatment with NH3 alone. The series is classed as cell-based, human. The source says:
(§1) The study has provided information on the underlying mechanism of antitumor activity of NH3 alone in different cell lines. Total of 19 (seven from A2780 cell line, nine from A2780^cisR cell line and three from HT-29 cell line) proteins have been identified from the present study that underwent significant changes in expression following treatment with NH3 alone. Change in folds of the respective proteins after treatment with NH3 alone is shown in Table 2 (A2780 cell line), Table 3 (A2780^cisR cell line) and Table 4 (HT-29 cell line).
(§2) The method for determining single drug cytotoxicity and activity of drugs in sequenced combination was the same as described in our previous articles. […] The plates were then left to incubate under normal growth conditions for 72 h. […] Four hours after the addition of the MTT solution (50 µL per well of 1 mg/mL MTT solution), the purple formazan crystals produced from the reduction of MTT were dissolved in 150 µL DMSO and read with a iMarkTM Bio-Rad Microplate Reader Version 1.04.02.E. The IC50 values were obtained from the results of at least three independent experiments. Proteomic study was conducted following same procedure mentioned before in our published research article.

In series [2] the test system is HT-29 cell line. The series is described as above. The series is classed as cell-based, human.
From the text: as §1, §2

Series [3] has as its system Swiss-albino adult male mice. The series is described as follows: Twenty days in vivo toxicity study. To be noted: for Survival of mice till the end of the experiment: subcutaneous, twenty days study; for Creatinine / SGOT / SGPT: serum. As for the experimental part: Experimental animals: Thirty six Swiss-albino adult male mice (body weight range 20 ± 5 gm) were purchased from the Department of Pharmacy, Jahangirnagar University, Bangladesh. Mice were housed in a 12 h day night cycle (light on at 7 am and off at 7 pm) providing bench light of 350 lux, at 25 ± 2 °C temperature and 55 ± 10% humidity. Mice were reared in the cages (580 × 375 × 190 mm), supplied with commercially available food pellet [Rodent diet, ICDDRB, Bangladesh] and drinking water ad libitum. Body weight of each mouse was measured twice every day and other physical changes recorded.
Animal sacrifice, blood and organs collection: Twenty four hours following the last treatment and test, the mice were kept in fasting overnight. Then, they were anaesthetized with intraperitoneal injection of sodium pentobarbital (35 mg/kbw) [Phenobarbital, Incepta Pharmaceuticals, Bangladesh] and sacrificed as shown in Table 9
Blood was collected immediately, centrifuged at 1000 rpm, collected plasma and serum were preserved at –80 °C for biochemical study (SGPT, SGOT and Creatinine). Biochemical investigations were carried out in an auto analyzer (Photometer 5010 V5+, Robert Riely, Berlin, Germany) using Sigma Aldrich (Saint Louis, MO, USA) reagent kit. The mice model preliminary toxicity study was approved by the Biosafety, Biosecurity and Ethical Committee [Approval Number: BBEC-JU/M2019(12)1] of Jahangirnagar University, Savar, Dhaka, Bangladesh. Statistical analysis was conducted through SPSS using Satterthwaite’s method for equality of variances.

Series [4] concerns A2780^cisR cell line. The series is classed as cell-based, human.
From the text: as §1, §2

The test system of series [5] is A2780 cell line. Kind of series: Binary sequenced combination study (MTT, CI and dose-effect parameters). To be noted: single drug; for IC50: read-out: Dm (median effect dose). The series is classed as cell-based, human. As for the experimental part:
(§3) Binary sequenced combinations of NH3 with curcumin and EGCG have been investigated in both ovarian and colorectal cancer models using four different cell lines.
as §2

Series [6] deals with HT-29 cell line. The series is described as above. The series is classed as cell-based, human. As to conditions: single drug; for IC50: read-out: Dm (median effect dose). As for the experimental part:
as §3, §2

Series [7] concerns A2780^cisR cell line. The description is as above. The series is classed as cell-based, human. As to conditions: single drug; for IC50: read-out: Dm (median effect dose). As for the experimental part:
as §3, §2

Another series concerns Caco-2 cell line. Described as above. The series is classed as cell-based, human. As to conditions: single drug; for IC50: read-out: Dm (median effect dose). As to the method:
as §3, §2

The next series deals with A2780^cisR. Kind of series: MTT reduction assay, cytotoxicity. The series is classed as cell-based, human. To be noted: A2780^cisR cell line. As to the method: (§4) Dose response curves have been presented in Supplementary File (Figures S1–S5).
as §2

The next series deals with MCF-7. Kind of series: MTT reduction assay, cytotoxicity. The series is classed as cell-based, human. To be noted: MCF-7 cell line. As for the experimental part:
as §4, §2

The test system of another series is A2780. Kind of series: MTT reduction assay, cytotoxicity. The series is classed as cell-based, human. As to conditions: parent ovarian A2780 cell line. As for the experimental part: as §4, §2
Another series deals with A2780^ZDO473R. Kind of series: MTT reduction assay, cytotoxicity. The series is classed as cell-based, human. As to the method: as §4, §2
Another series relates to Hela. Kind of series: MTT reduction assay, cytotoxicity. The series is classed as cell-based, human. As to conditions: Hela cell line. As for the experimental part:
as §4, §2

The subject of series [8] is Raji (lymphoma), Hela (cervical) and PC-3 (prostate) cancer cell line. To be noted: cited from earlier work.

The structures appear in SMILES notation. Like-named read-outs stand apart in the source and are kept apart here.

As for `[O-]c1cccc2cccnc12.[O-]c1cccc2cccnc12.[Pd+2]` [NH3, [Bis(1,8-quinolato)palladium (II)]], the “Change in Expression: Actin, cytoplasmic 1” value with A2780 cell line [1] (spot 6), in the series with A2780^cisR cell line [4] (spot 1) and in the series on A2780^cisR cell line [4] (spot Cn79) was “Downregulated” each time. The “Fold change: Actin, cytoplasmic 1” value in the series with A2780 cell line [1] (spot 6, Downregulated) worked out at 4.8; with A2780^cisR cell line [4] (spot 1, Downregulated), 1.51; in the series on A2780^cisR cell line [4] (spot Cn79, Downregulated), 2.79. Moreover, in the series on A2780 cell line [1] (spot 12), the “Change in Expression: Vimentin” value is listed as “Downregulated”. Moreover, the “Fold Change: Vimentin” value in the series on A2780 cell line [1] (spot 12, Downregulated) was found to be 1.63. Further, in the series with A2780 cell line [1] (spot 13), the “Change in Expression: 60 kDa heat shock protein, mitochondrial” value is given as “Downregulated”. For the same compound, in the series on A2780 cell line [1] (spot 13, Downregulated), the “Fold Change: 60 kDa heat shock protein, mitochondrial” value was 3.23. For the same compound, the “Change in Expression: Endoplasmin” value in the series on A2780 cell line [1] (spot 18) was “Downregulated”. Also, the “Fold Change: Endoplasmin” value in the series on A2780 cell line [1] (spot 18, Downregulated) was 4.56. Moreover, the “Change in Expression: 78 kDa glucose-regulated protein” value in the series with A2780 cell line [1] (spot 45) is “Downregulated”. Besides, the “Fold Change: 78 kDa glucose-regulated protein” value with A2780 cell line [1] (spot 45, Downregulated) came out at 2.00. Besides, the “Change in Expression: Polyubiquitin-B” value in the series with A2780 cell line [1] (spot 118) is on record as “Downregulated”. Further, in the series with A2780 cell line [1] (spot 118, Downregulated), the “Fold Change: Polyubiquitin-B” value is 11.39. Further, in the series with A2780 cell line [1] (spot 155), the “Change in Expression: Histone H3.3” value is “Downregulated”. In the series on A2780 cell line [1] (spot 155, Downregulated), the “Fold Change: Histone H3.3” value is given as 6.63. Further, the “Change in Expression: Nucleoside Diphosphate kinase B” value in the series with HT-29 cell line [2] (spot Hn70) is on record as “Downregulated”. Besides, in the series on HT-29 cell line [2] (spot Hn70, Downregulated), the “Fold Change: Nucleoside Diphosphate kinase B” value is recorded as 2.14. For the same compound, the “Change in Expression: Annexin A1” value in the series on HT-29 cell line [2] (spot Hn89) is given as “Downregulated”. Also, the “Fold Change: Annexin A1” value in the series on HT-29 cell line [2] (spot Hn89, Downregulated) turned out to be 1.85. Besides, the “Change in Expression: Histone H4” value in the series on HT-29 cell line [2] (spot Hn119) is on record as “Downregulated”. In addition, the “Fold Change: Histone H4” value in the series with HT-29 cell line [2] (spot Hn119, Downregulated) is given as 1.91. The “Change in mean body weight of mice” value in series [3] (both lower (2.5 mg/kg) and higher (5 mg/kg) doses, vs control groups) is “Decrease in body weight is also significant”. Moreover, the “Toxicity compared to cisplatin” value in [3] (both lower (2.5 mg/kg) and higher doses (5 mg/kg), twenty days) is listed as “less toxic”. The “Survival of mice till the end of the experiment” value in [3] (higher dose 5 mg/kg) is “only one mouse died”; in series [3] (lower dose 2.5 mg/kg), “All mice were alive”. In addition, the results for the Creatinine in series [3] (2.5 mg/kg) and in series [3] (5 mg/kg) were 0.9 ± 0.2 mg/dL and 0.7 ± 0.2 mg/dL, respectively. Further, the SGOT in series [3] (2.5 mg/kg) came to 53 ± 4 IU/L; in series [3] (5 mg/kg) it was 59 ± 5 IU/L. In addition, the SGPT in [3] (2.5 mg/kg) turned out to be 45 ± 3 IU/L; in series [3] (5 mg/kg), 48 ± 4 IU/L. In the series with A2780^cisR cell line [4] (spot Cn9), the “Change in Expression: 40S ribosomal protein SA” value is “Downregulated”. Further, the “Fold change: 40S ribosomal protein SA” value in the series on A2780^cisR cell line [4] (spot Cn9, Downregulated) was 2.98. For the same compound, the “Change in Expression: Heat shock cognate 71 kDa protein” value with A2780^cisR cell line [4] (spot Cn16) is recorded as “Downregulated”. Also, in the series on A2780^cisR cell line [4] (spot Cn16, Downregulated), the “Fold change: Heat shock cognate 71 kDa protein” value was 1.69. Further, the “Fold change: Keratin, type II cytoskeletal 1” value with A2780^cisR cell line [4] (spot Cn23, Upregulated) came out at 2.47. Also, the “Change in Expression: Elongation factor Tu, mitochondrial” value in the series with A2780^cisR cell line [4] (spot Cn34) is “Downregulated”. In the series on A2780^cisR cell line [4] (spot Cn34, Downregulated), the “Fold change: Elongation factor Tu, mitochondrial” value amounted to 7.86. Also, the “Change in Expression: Citrate synthase, mitochondrial” value in the series on A2780^cisR cell line [4] (spot Cn41) is “Downregulated”. The “Fold change: Citrate synthase, mitochondrial” value with A2780^cisR cell line [4] (spot Cn41, Downregulated) turned out to be 2.93. The “Change in Expression: Transitional endoplasmic reticulum ATPase” value in the series on A2780^cisR cell line [4] (spot Cn56) is reported as “Downregulated”. For the same compound, in the series on A2780^cisR cell line [4] (spot Cn56, Downregulated), the “Fold change: Transitional endoplasmic reticulum ATPase” value amounted to 3.87. Further, in the series on A2780^cisR cell line [4] (spot Cn69), the “Change in Expression: Cofilin-1” value is reported as “Downregulated”. The “Fold change: Cofilin-1” value in the series with A2780^cisR cell line [4] (spot Cn69, Downregulated) is listed as 2.27. The “m (exponent defining the shape of the dose–effect curve)” value was 1.97 in the series on A2780 cell line [5], 2.06 in the series on HT-29 cell line [6], 2.05 with A2780^cisR cell line [7] and 1.96 in the series on Caco-2 cell line. Moreover, the IC50 worked out at 0.18 µM in the series with A2780 cell line [5], 0.38 µM in the series with HT-29 cell line [6], 0.23 µM with A2780^cisR cell line [7] and 0.56 µM with Caco-2 cell line. The entries for the “times greater activity than cisplatin” value in the series with A2780^cisR, with A2780 and with A2780^ZDO473R were 90 times, 10 times and 80 times, respectively. The “times greater cytotoxicity than cisplatin” value with MCF-7 is “around 65 times”; in the series with Hela it was “around 10 times”.

As to `COc1cc(/C=C/C(=O)CC(=O)/C=C/c2ccc(O)c(OC)c2)ccc1O` [Curcumin, curcumin], the IC50 was 8.63 µM in the series with A2780 cell line [5] (Homo sapiens); 16.6 µM in the series with HT-29 cell line [6] (Homo sapiens); 16.7 µM with A2780^cisR cell line [7] (Homo sapiens, A2780cisR); 21.9 µM in the series on Caco-2 cell line (Homo sapiens). Moreover, the “m (exponent defining the shape of the dose–effect curve)” value in the series on A2780 cell line [5] turned out to be 1.25; with HT-29 cell line [6], 1.25; in the series with A2780^cisR cell line [7], 1.56; in the series on Caco-2 cell line, 1.08.

For `O=C(O[C@@H]1Cc2c(O)cc(O)cc2O[C@@H]1c1cc(O)c(O)c(O)c1)c1cc(O)c(O)c(O)c1` [EGCG, epigallocatechin gallate], the “m (exponent defining the shape of the dose–effect curve)” value in the series on A2780 cell line [5] was 0.94; in the series on HT-29 cell line [6] it was 0.39; in the series on A2780^cisR cell line [7], 0.93; with Caco-2 cell line it was 1.32. Also, the IC50 in the series on A2780 cell line [5] was 10.3 µM; with HT-29 cell line [6], 3.67 µM; in the series on A2780^cisR cell line [7], 8.9 µM; in the series on Caco-2 cell line, 108 µM.

In the case of `Oc1cccc2cccnc12` [8-Hydroxyquinoline], the Antitumor activity entry in series [8] is reported as “significant antitumor activity”.

Values taken from PMC8395214, “Promising Anticancer Activity of [Bis(1,8-quinolato)palladium (II)] Alone and in Combination” (International Journal of Molecular Sciences, 2021).
